The values that follow come from patent US20090081775A1, “Microscope system and screening method for drugs, physical therapies and biohazards” (Stiftesen Unversitetsforskning Bergen, priority 2005, published 2009).

Structures are written as SMILES. Several values for one entry are separate records, joined by “and”; a condition that tells them apart may be missing. Equal entries are not always repeated.

In the assay the test system is PC12 cells. The experiment in a line: Segmentation of WGA stained PC12 cells treated with thymidine (cell size by automated 3D segmentation). It is filed as cell-based, rat. The procedure:
PC12 and NRK cells were cultured in DMEM supplemented with 10% fetal calf serum and 5% horse serum. For high-resolution fluorescence microscopy and light microscope analysis, PC 12 cells were plated in LabTek™ chambered swell cover glasses (Nalge Nunc Int., Wiesbaden, Germany). Two hours after plating, the cells were stained with two dyes. For the experiments in which the effect of thymidine on cellular size and morphology was investigated, PC12 cells were plated on LabTek™ chambered swell cover glasses. 24 hours after plating, fresh growth medium containing 4 mM thymidine (Sigma) was added to the cells. In the control condition, fresh growth medium without thymidine was used. 24 hours afterwards cells were washed once with prewarmed fresh growth medium and grown further in growth medium without thymidine. […] To specifically display cell borders, cells were stained with wheat germ agglutinin (WGA) conjugated to either AlexaFluor™488 or AlexaFluor™594 (Invitrogen). WGA-AlexaFluor™594 is a lectin which binds glycogenfugates like N-acetylglucosamine and therefore stains biological membranes efficiently. CellTracker™ (CellTracker™, Molecular Probes Inc., Eugene, Oreg., USA) passes freely through cell membranes, but once inside a cell, it is transformed into cell-impermeant reaction products and is retained in living cells through several generations. […]
High resolution, […] fluorescence microscopy was performed with an Olympus IX70 microscope (Olympus Optical Co. Europa GmbH, Hamburg) or a Zeiss Axiovert 200M (Bergman A S, Lilleström, Norway) both equipped with 100× oil-immersion objectives, monochromator-based illumination systems (T.I.L.L. Photonics GmbH, Martinsried, Germany), tripleband filtersets DAPI/FITC/TRITC F61-020 (AHF Analysetechnik AG, Tübingen, Germany) and piezo z-steppers (Physik Instrumente GmbH & Co., Karlsruhe, Germany). […] With both the wide-field and confocal imaging setups, WGA-stained cells were analyzed in 3D by acquiring single focal planes 300 to 400 nm apart from each other in the z-direction spanning the whole cellular volume. […]

[1] abbreviates: 4 mM thymidine for 24 hours, then 24 hours without, mid plane 2D, mean and SEM, three experiments, listed as tymidine.

For `Cc1cn([C@H]2C[C@H](O)[C@@H](CO)O2)c(=O)[nH]c1=O` [thymidine], under setting [1], the “Dmaj (+): mean major axis length, treated group” value is 15.26 + 0.40 μm and 16.79 + 0.32 μm and 15.83 + 0.25 μm; the “Dmin (+): mean minor axis length, treated group” value was 9.98 + 0.32 μm and 9.21 + 0.19 μm and 9.01 + 0.18 μm. Further, the “mean size of a cell treated with thymidine compared to a control group” value (conclusion from three experiments) was “increase”.
